Literature values, collected in US20200138985A1, “KIT FOR LABELING A PROSTATE-SPECIFIC MEMBRANE ANTIGEN LIGAND WITH A RADIOACTIVE ISOTOPE” (Isotopia Molecular Imaging Ltd., priority 2015, published 2020).

Target: T1, PSMA (Homo sapiens, UniProt Q04609)
T1 construct: In cell research with PSMA-positive androgen-insensitive LNCaP-C4-2 cells; endogenous in cells; host or cells: LNCaP-C4-2 cells
Settings: PSMA-positive androgen-insensitive LNCaP-C4-2 cells

T1 sequence (Q04609 whole entry): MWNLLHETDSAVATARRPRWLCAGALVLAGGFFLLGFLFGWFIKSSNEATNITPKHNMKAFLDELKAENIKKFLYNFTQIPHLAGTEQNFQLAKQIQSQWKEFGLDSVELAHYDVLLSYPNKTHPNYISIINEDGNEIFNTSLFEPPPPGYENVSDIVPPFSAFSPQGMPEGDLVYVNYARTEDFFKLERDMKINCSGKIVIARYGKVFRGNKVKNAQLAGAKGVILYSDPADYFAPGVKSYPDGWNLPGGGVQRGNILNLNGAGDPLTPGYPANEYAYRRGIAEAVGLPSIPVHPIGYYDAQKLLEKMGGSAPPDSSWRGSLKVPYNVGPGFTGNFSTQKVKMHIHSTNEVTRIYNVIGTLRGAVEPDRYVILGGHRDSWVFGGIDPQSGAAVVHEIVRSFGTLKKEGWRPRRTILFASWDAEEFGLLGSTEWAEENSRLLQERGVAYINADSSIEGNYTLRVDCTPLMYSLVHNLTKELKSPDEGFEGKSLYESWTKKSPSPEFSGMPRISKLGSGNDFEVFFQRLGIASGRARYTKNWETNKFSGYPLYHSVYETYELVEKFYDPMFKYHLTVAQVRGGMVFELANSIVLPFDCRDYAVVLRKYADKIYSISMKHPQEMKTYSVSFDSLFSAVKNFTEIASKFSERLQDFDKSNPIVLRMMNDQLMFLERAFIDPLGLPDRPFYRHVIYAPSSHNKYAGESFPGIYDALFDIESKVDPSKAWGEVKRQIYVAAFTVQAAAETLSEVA

Kd [nM] | Substance
21.6 ± 0.4 | (5S,8S,22S,26S)-1-amino-5,8-dibenzyl-4,7,10,19,24-pentaoxo-3,6,9,18,23,25-hexaazaoctacosane-22,26,28-tricarboxylic acid (DUPA-Pep), conjugated with 1,4,7,10-tetraazacyclododecane-N,N,N′,N″-tetraacetic acid (DOTA)
≤ 14.7 | cyclohexyl-diethylene triamine pentaacetic acid-(5S,8S,22S,26S)-1-amino-5,8-dibenzyl-4,7,10,19,24-pentaoxo-3,6,9,18,23,25-hexaazaoctacosane-22,26,28- tricarboxylic acid [CHX-A″-DTPA-DUPA-Pep]
